Reference: article PMC9014412 (Journal of medicinal chemistry, 2022)

Columns and labels:
H3K56ac = test: Histone H3 Lys 56 acetylation (H3K56ac) western blotting; assay type: cell-based, human; settings: HCT116 cells, 24 h, screen at 0.1, 1, 10 μM; relative to DMSO, CI-994 and 1 at 10 μM
Description: (§1) Supporting Information: Biology
(§2) Representative blots of two independent biological replicates.

HDAC1 = HDAC1 (Homo sapiens, UniProt Q13547); test: HDAC1 degradation by quantitative western blotting in HCT116 cells; settings: for HDAC1 degradation in initial screen (in words): HCT116 cells, 24 h, 0.1, 1 and 10 μM, compared with 1 at 10 μM
Sequence of HDAC1 (Q13547 whole entry): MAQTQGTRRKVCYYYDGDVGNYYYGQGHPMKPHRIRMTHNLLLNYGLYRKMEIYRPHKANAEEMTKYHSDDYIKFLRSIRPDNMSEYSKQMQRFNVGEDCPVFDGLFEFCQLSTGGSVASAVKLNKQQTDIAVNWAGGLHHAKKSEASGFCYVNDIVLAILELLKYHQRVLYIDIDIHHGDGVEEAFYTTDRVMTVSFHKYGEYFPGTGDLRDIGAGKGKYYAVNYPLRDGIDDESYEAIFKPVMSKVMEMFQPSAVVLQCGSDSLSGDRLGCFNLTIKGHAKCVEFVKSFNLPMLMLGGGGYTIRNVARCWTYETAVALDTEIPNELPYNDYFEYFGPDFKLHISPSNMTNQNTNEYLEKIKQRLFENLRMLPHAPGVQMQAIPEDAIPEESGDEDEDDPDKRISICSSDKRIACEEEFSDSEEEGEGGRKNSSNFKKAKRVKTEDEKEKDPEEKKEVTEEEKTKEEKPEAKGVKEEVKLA
Protocol: (§7) Initially, each PROTAC was tested at 0.1, 1, and 10 μM in HCT116 cells for 24 h; then, cell extracts were prepared and evaluated for HDAC1/2 and 3 degradation by quantitative western blotting.
(§8) This cell line was incubated at 37 °C with 5% CO2.
(§9) HCT116 cells were seeded into 6-well plates (4 × 10^5 cells/well for 24 h, 2 × 10^5 cells/well for 48 h) for 24 h and then treated with DMSO or compounds at the indicated concentrations in fresh medium (5 mL total). After desired treatment time, the cells were harvested and then lysed in lysis buffer (50 mM Tris-HCl, 150 mM NaCl, 0.5% NP-40, 0.5% Triton X-100) supplemented with a protease inhibitor (Sigma, P8340). The suspension was incubated on ice for 30 min and centrifuged (18,000 rcf, 15 min, 4 °C); then, the supernatant was collected, and protein concentrations were quantified via Bradford Assay using Protein Assay Dye Reagent Concentrate (BIO-RAD). […] PageRuler Plus Prestained Ladder was used for size standards. After gel electrophoresis at 140 V for 90 min, the separated proteins were transferred onto a nitrocellulose membrane at 30 V for 60 min. The membranes were probed with primary antibodies (see the Supporting Information) for 60−90 min. Blots were developed with complimentary IRDye-conjugated secondary antibodies, and the bands were visualized using an Odyssey infrared imaging system. Image processing and band intensity quantification were performed using Image Studio Lite.

HDAC2 = HDAC2 (Homo sapiens, UniProt Q92769); test: HDAC2 degradation by quantitative western blotting in HCT116 cells; settings: for HDAC2 degradation in initial screen (in words): HCT116 cells, 24 h, 0.1, 1 and 10 μM, compared with 1 at 10 μM
Sequence of HDAC2 (Q92769 whole entry): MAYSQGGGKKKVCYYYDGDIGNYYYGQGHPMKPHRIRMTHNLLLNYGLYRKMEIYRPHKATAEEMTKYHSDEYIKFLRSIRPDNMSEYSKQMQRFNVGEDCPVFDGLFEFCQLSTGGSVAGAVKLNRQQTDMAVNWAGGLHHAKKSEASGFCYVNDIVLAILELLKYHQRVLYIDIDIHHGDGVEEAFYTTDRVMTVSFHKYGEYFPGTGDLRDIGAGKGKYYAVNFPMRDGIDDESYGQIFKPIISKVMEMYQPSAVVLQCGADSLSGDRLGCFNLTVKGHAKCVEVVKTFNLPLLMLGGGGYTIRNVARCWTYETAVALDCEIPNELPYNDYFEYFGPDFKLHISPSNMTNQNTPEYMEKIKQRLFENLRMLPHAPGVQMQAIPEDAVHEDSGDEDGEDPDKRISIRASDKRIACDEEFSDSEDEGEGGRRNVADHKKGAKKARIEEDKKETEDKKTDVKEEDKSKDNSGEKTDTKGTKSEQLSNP
Protocol: as §7, §8, §9

Solubility observations = assay type: physicochemical; settings: aqueous
HCT116 cells [1] = test: Apoptosis flow cytometry assay (sub-G1 population); assay type: cell-based, human; settings: 10 μM, after 24 h
Protocol: HCT116 cells were seeded (5 × 10^5 cells/plate) into 6 cm tissue culture plates for 24 h and then treated with 10 μM compounds (with 0.1% DMSO vehicle) or 0.1% DMSO control in fresh medium (5 mL total). The cells were then exposed to the compounds (10 μM) for 24 or 48 h. To harvest the cells, the medium was transferred from each sample plate to 15 mL centrifuge tubes. Each well was washed with 1 mL of phosphate-buffered saline (PBS) and the PBS was transferred to the corresponding 15 mL centrifuge tube. The plates were trypsinized, 2 mL of medium was added, and the cells and medium were transferred to the corresponding 15 mL centrifuge tubes. The harvested cells were pelleted by centrifugation (200g, 5 min, 4 °C), washed with 1 mL PBS, and then pelleted again by centrifugation (200g, 5 min, 4 °C). The supernatant was discarded, and the pellets resuspended in 1 mL of 70% ethanol (ice-cold) to fix the cells. Samples were stored at 4 °C and analyzed within two weeks. PBS (1 mL) was added to each sample tube containing cells fixed in 70% ethanol. The cells were pelleted by centrifugation (200g, 5 min, 4 °C), and the PBS wash was repeated. The supernatant was discarded, and the pellet was resuspended in 50 μL of RNase A (1 μg/mL, Thermo Scientific, EN0531) and left at room temperature for 10 min to digest contaminating RNA. A total of 500 μL of PI stain (50 μg/mL, Invitrogen, P3566) was added to each tube, and the tubes were incubated in the dark, at room temperature, for 30 min. Results were acquired on a BD FACSCanto II flow cytometer and analyzed using BD FACSdiva software. Sub-G1 population was calculated as a percentage of total cell population. Two independent biological replicates were performed.

SIN3A = SIN3A protein levels by western blotting; assay type: cell-based, human; settings: HCT116 cells, 10 μM, after 24 h
Protocol: as §1, §2
Figure S6. Representative Western blot of HDAC1/2/3 levels after 24 hours and 48 hours with 1
(JPS004), 7 (JPS014) and 9 (JPS016), and bar graph representation of HDAC1-3, LSD1 and Sin3a
protein levels after 24 hours and 48 hours as the average of three independent biological replicates.
(also on this page, place not known: HDAC1 24hHDAC2 24hHDAC3 24hHDAC1 48hHDAC2 48hHDAC3 %Protein Levels Remaining (Relative to DMSO) %Protein Levels Remaining (Relative to DMSO))

HCT116 cells [2] = test: CellTiter-Glo 2.0 cell viability assay; assay type: cell-based, human
Protocol: CellTiter-Glo 2.0 Reagent (Promega UK Ltd, G9242) was equilibrated to room temperature and added to the wells in a ratio of 1 volume reagent:5 volumes medium. Background luminescence was determined using medium alone plus reagent. The plates were shaken on an orbital shaker for 2 min to induce cell lysis and then incubated in the dark at room temperature for 10 min to stabilize the luminescent signal. Luminescence was captured on a CLARIOstar plate reader (BMG Labtech Ltd, UK) at 22 °C to give relative luminescence units and analyzed using BMG Labtech software. EC50 values were calculated by nonlinear regression (Hill plot) and log (inhibitor) versus response—variable slopes (four parameters) using GraphPad Prism 9 software. Each compound dose response was repeated as four independent biological replicates (n = 4).

HCT116 cells [3] = test: RNA-seq differential gene expression; assay type: cell-based, human; settings: 10 μM, 24 h, compared with the more potent degraders
Protocol: RNA-seq analysis was performed in HCT116 cells treated with PROTACs (JPS004, JPS014, JPS016, JPS035, and JPS036) for 24 h at 10 μM concentration. Total RNA was isolated using a Tri-reagent RNA miniprep kit (Zymogen; R2053), before RNA integrity, size, and purity were assessed using an Agilent Bioanalyzer. Library preparation and sequencing were performed by Novogene, using a NovaSeq 6000 PE150 platform at a read depth of 20 million. For bioinformatics analysis, see the Supporting Information. RNA-seq data from the study was deposited at the GEO database (GSE197985).
3. Apoptosis Flow Cytometry Assay
Figure S9. Apoptosis flow cytometry assay with 2.5 µM and 10 µM treatments of JPS016 and JPS016NC at 24 and 48 hours. Error bars represent the average of three independent biological replicates.
µM µM µM 5 µM µM µM µM µM µM µM
4. RNA Seq – Bioinformatics Analysis
Paired-end reads were aligned using HISAT2 (v2.2.1) and mapped to the HISAT2 GRCh38_tran index build.3 Quality control was performed on raw and aligned data using FASTQC (v0.11.9) and summarised using MultiQC (v1.11).4,5 The resulting SAM files were subsequently sorted and converted to the BAM format before indexing with SAMtools (v 1.12).6 Reads were then counted across the exons of each gene and gene loci annotated using command-line program LiBiNorm (v2.4); run in HT-Seq compatibility mode (-z) and provided with the ‘Homosapiens.GRCh38.104’ GTF file obtained from Ensembl. LiBiNorm was run using the following parameters: LiBiNorm count -z -r pos -i gene_name -s reverse <BAM file> Homo_sapiens.GRCh38.104.gtf <OUTPUT file>.7 Default normalisation of expression values and differential gene analysis was then carried out using the R package DESeq2.8 Significance thresholds were set as a p-adjusted value < 0.01 and a fold change > 2 (log2 fold change > 1) and implemented for down-stream analysis, with all plots produced in R. Gene ontology (GO) analysis was carried out using the Bioconductor package topGO using the human genome-wide annotation package to map gene identifiers to the relevant org.Hs.eg.db […]

HDAC3-SMRT complex = target: T1, HDAC3-SMRT complex (Homo sapiens, UniProt O15379); test: Fluorescent HDAC assay with purified HDAC3-SMRT complex; assay type: biochemical; settings: Boc-(Ac)Lys-AMC substrate
T1 construct: made in house
T1 sequence (O15379 whole entry): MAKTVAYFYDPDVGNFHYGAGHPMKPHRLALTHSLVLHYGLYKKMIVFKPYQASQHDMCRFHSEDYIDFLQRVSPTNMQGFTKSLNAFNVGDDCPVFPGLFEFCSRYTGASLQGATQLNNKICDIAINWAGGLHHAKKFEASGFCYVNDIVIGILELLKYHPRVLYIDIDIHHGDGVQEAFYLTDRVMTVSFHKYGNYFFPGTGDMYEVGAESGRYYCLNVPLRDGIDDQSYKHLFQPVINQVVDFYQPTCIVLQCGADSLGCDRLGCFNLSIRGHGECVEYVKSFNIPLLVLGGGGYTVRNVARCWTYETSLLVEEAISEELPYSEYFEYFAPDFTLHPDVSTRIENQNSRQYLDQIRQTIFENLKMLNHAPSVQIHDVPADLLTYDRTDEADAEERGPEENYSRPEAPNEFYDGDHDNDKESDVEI
T1 sequence (Q9Y618 389-480 partner limits assumed): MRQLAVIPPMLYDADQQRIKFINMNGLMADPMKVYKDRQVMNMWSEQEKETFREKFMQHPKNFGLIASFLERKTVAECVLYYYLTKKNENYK
Protocol: (§3) 2. In Vitro HDAC Assay with Class I HDAC Complexes
(§4) Histone Deacetylase Assay. Inhibition experiments against HDAC1-CoREST-LSD1, HDAC2-CoREST-LSD1 and HDAC3-SMRT-DAD were conducted using a fluorescent HDAC assay. The assays were carried out utilising a black 96-well plates (Corning) with a reaction volume of 50 µL. HDAC complexes were expressed and purified as described previously.1,2 100 µM of Boc- (Ac)Lys-AMC was used as a substrate in each well. All determinations were performed in triplicate. The inhibitors/PROTACs were dissolved at 50 mM in DMSO, and then further diluted with 10% DMSO HDAC assay buffer (10% DMSO, 50 mM Tris pH 7.5, 50 mM NaCl, 0.1 mg/mL BSA) to micromolar concentrations. 1:3 serial dilutions were then carried out using 10% DMSO HDAC assay buffer to afford range of concentrations. 10 µL of each of these solutions were […]
(§5) assay buffer (50 mM Tris pH 7.5, 50 mM NaCl, 0.1 mg/mL BSA). The plate was then incubated at 20 °C, 100 RPM for 1 hour. After incubation, 10 µL of the Boc-(Ac)Lys-AMC substrate, dissolved in HDAC assay buffer, was added to each well. […] Fluorescence intensity was determined […]
(§6) IC 50 values were calculated through the GraphPad Prism 7 software by non-linear regression, log (inhibitor) vs. response – variable slope […]

[4] = target: T2, HDAC2-CoREST-LSD1 complex (Homo sapiens, UniProt Q92769); test: Fluorescent HDAC assay with purified HDAC2-CoREST-LSD1 complex; assay type: biochemical; settings: Boc-(Ac)Lys-AMC substrate
T2 construct: made in house
T2 sequence (Q92769 whole entry, other chains not shown): as the sequence (Q92769 whole entry) above
T2 sequence (Q9UKL0 86-485 partner limits assumed, other chains not shown): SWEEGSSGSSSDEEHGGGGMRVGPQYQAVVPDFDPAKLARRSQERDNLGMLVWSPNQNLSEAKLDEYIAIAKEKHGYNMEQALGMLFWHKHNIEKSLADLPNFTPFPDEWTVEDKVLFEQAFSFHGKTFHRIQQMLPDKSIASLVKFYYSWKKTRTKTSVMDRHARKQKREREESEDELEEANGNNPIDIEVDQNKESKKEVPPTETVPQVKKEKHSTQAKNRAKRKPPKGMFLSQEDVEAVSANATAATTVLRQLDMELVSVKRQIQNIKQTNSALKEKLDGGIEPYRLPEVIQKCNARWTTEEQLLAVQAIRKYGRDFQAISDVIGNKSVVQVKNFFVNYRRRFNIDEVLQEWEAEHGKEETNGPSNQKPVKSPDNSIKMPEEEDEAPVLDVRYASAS
Protocol: as §3, §4, §5, §6

HDAC3 = HDAC3 (Homo sapiens, UniProt O15379); test: HDAC3 degradation by quantitative western blotting in HCT116 cells
Sequence of HDAC3 (O15379 whole entry): as the sequence (O15379 whole entry) above
Sequence of HDAC3 (Q9Y618 389-480 partner limits assumed): as the sequence (Q9Y618 389-480 partner limits assumed) above
Protocol: as §7, §8, §9

[5] = target: T3, HDAC1-CoREST-LSD1 complex (Homo sapiens, UniProt Q13547); test: Fluorescent HDAC assay with purified HDAC1-CoREST-LSD1 complex; assay type: biochemical; settings: Boc-(Ac)Lys-AMC substrate
T3 construct: made in house
T3 sequence (Q13547 whole entry, other chains not shown): as the sequence (Q13547 whole entry) above
T3 sequence (Q9UKL0 86-485 partner limits assumed, other chains not shown): as the sequence (Q9UKL0 86-485 partner limits assumed, other chains not shown) above
Protocol: as §3, §4, §5, §6

Row | SMILES | H3K56ac levels (in words) (H3K56ac) | HDAC1 degradation in initial screen (in words) (HDAC1) | HDAC2 degradation in initial screen (in words) (HDAC2) | Solubility (in words) (Solubility observations) | Percentage of cells in sub-G1 phase (in words) (HCT116 cells [1]) | SIN3A levels (abundance) (SIN3A) [% abundance] | EC50 (HCT116 cells [2]; Homo sapiens, HCT-116, 48 h) [µM] | Fold less DEGs (HCT116 cells [3]) | IC50 (HDAC3-SMRT complex) [µM] | IC50 [4] [µM] | Effect on cell viability (in words) (HCT116 cells [2]; CellTiter-Glo and flow cytometry) | HDAC3 dose-response behaviour (hook effect) (HDAC3; HCT116 cells, 24 h, 0.01-10 μM) | Dmax (HDAC3; HCT-116, read-out: Dmax HDAC3) [%] | Dmax (HDAC1; HCT-116, read-out: Dmax HDAC1) [%] | IC50 [5] [µM] | Dmax (HDAC2; HCT-116, read-out: Dmax HDAC2) [%]
1 | Cc1ncsc1-c1ccc(CNC(=O)[C@@H]2C[C@@H](O)CN2C(=O)[C@@H](NC(=O)CCCCCCCCCCCCC(=O)Nc2ccc(C(=O)Nc3ccccc3N)cc2)C(C)(C)C)cc1 [Compound 5, N1-(4-((2-Aminophenyl)carbamoyl)phenyl)-N14-((S)-1-((2S,4R)-4-hydroxy-2-((4-(4-methylthiazol-5-yl)benzyl)carbamoyl)-pyrrolidin-1-yl)-3,3-dimethyl-1-oxobutan-2-yl)tetradecanediamide] | only a modest increase in H3K56ac compared to the shorter linkers | comparable HDAC1 and HDAC2 degradation to the shorter linkers | comparable HDAC1 and HDAC2 degradation to the shorter linkers | solubility issues |  |  |  |  |  |  |  |  |  |  |  | 
2 | Cc1ncsc1-c1ccc(CNC(=O)[C@@H]2C[C@@H](O)CN2C(=O)[C@@H](NC(=O)CCCCCCCCOCC(=O)Nc2ccc(C(=O)Nc3ccccc3N)cc2)C(C)(C)C)cc1 [Compound 7, (2S,4R)-1-((S)-2-(9-(2-((4-((2-Aminophenyl)carbamoyl)phenyl)-amino)-2-oxoethoxy)nonanamido)-3,3-dimethylbutanoyl)-4-hydroxy-N-(4-(4-methylthiazol-5-yl)benzyl)pyrrolidine-2-carboxamide] | increased H3K56ac to comparable or greater levels than CI-994 and 1 |  |  |  | highest percentage of cells in the sub-G1 phase | 50 | 7.3 ± 0.5 |  |  |  |  |  |  |  |  | 
3 | CC(=O)N[C@H](C(=O)N1C[C@H](O)C[C@H]1C(=O)NCc1ccc(-c2scnc2C)cc1OCCCCCCCCCCCC(=O)Nc1ccc(C(=O)Nc2ccccc2N)cc1)C(C)(C)C [Compound 21, (2S,4R)-1-((S)-2-Acetamido-3,3-dimethylbutanoyl)-N-(2-((12-((4-((2-aminophenyl)carbamoyl)phenyl)amino)-12-oxododecyl)oxy)-4-(4-methylthiazol-5-yl)benzyl)-4-hydroxypyrrolidine-2-carboxamide] | increased H3K56ac levels significantly but not to the same levels as 1 | comparable HDAC1 and HDAC2 degradation to 1 | comparable HDAC1 and HDAC2 degradation to 1 |  |  |  |  | approximately 10 fold | 3.81 ± 0.79 | 3.46 ± 0.78 | little effects on cell viability | exhibit a standard dose response curve for HDAC3 | 76 | 68 | 1.81 ± 0.54 | 49
